The record followed here is patent US8148391B2 (Cephalon, Inc., priority 2006, dated 2012).

Usually IC50 stands for the concentration that gives 50% inhibition.

The target of experiment [1] is T1, c-Met (cytoplasmic domain) (Homo sapiens, UniProt P08581).
T1 construct: 10 ng/mL c-Met (cytoplasmic domain, Invitrogen Corporation #PV3143); purchased Invitrogen Corporation PV3143
Briefly: c-Met Kinase Assay (same methods as for ALK, with modifications). The class given is biochemical. The settings on record: 1 μM ATP (Km level); read-out: cMet Activity (c-Met Kinase Inhibition, IC50). Put shortly: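 Wells were coated with 10 μg/mL phospholipase C-γ substrate in TBS, and reactions were started with 10 ng/mL c-Met cytoplasmic domain and run at 37° C for 15 minutes. Phosphorylated product was detected with Eu-N1-labeled PT66 antibody. IC50 values came from sigmoidal variable-slope fits of percent inhibition versus log compound concentration.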

In experiment [2] the target is T2, baculovirus-expressed ALK (Homo sapiens, UniProt Q9UM73).
T2 construct: host or cells: baculovirus expression system
T2 sequence (Q9UM73 19-1620): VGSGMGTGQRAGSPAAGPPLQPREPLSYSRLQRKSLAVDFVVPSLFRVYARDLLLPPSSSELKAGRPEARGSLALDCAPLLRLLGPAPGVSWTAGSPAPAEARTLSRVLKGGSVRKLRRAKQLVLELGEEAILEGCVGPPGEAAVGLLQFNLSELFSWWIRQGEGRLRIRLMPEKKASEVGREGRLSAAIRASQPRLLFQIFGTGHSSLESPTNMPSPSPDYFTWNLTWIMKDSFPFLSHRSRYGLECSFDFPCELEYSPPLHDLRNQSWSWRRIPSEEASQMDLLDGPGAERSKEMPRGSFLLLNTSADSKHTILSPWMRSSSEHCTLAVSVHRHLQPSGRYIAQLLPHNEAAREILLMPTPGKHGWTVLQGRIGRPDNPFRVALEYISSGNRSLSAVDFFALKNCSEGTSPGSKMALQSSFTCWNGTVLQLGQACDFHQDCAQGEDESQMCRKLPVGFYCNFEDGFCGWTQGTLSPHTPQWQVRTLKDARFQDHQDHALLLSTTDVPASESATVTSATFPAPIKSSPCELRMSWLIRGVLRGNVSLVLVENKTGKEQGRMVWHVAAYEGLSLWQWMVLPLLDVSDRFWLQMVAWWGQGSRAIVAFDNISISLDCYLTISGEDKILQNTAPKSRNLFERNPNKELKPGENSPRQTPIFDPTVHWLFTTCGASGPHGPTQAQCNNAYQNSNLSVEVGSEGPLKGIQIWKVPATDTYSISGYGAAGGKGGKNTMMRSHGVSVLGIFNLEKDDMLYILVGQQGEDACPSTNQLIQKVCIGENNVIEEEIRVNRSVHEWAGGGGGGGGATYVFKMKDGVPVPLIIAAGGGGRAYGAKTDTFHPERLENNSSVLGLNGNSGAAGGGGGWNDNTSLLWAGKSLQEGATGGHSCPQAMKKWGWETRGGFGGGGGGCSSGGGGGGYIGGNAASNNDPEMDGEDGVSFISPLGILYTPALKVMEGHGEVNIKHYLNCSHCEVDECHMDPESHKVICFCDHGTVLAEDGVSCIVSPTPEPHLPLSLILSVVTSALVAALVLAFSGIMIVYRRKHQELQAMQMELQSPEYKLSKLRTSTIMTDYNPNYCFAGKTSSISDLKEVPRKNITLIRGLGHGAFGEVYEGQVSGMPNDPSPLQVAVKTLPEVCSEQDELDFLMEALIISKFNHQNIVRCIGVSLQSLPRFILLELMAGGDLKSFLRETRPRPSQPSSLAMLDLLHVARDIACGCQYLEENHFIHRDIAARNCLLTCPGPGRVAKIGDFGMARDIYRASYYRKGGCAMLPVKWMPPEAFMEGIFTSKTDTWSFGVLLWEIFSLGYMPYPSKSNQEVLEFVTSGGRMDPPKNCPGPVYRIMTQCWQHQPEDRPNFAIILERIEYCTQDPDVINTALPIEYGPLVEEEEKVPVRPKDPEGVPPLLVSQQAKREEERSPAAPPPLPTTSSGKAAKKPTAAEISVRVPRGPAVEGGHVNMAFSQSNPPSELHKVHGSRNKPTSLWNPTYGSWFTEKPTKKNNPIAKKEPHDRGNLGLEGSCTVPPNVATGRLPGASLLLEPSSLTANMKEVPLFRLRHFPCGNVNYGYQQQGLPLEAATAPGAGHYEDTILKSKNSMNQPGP
Kind of experiment: ALK Kinase Assay (ELISA-type, time-resolved fluorescence). The settings on record: 1 μM ATP (Km level); read-out: ALK Activity (ALK Kinase Inhibition, IC50). It counts as biochemical. Put shortly: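 Substrate coating: phospholipase C-γ, 10 μg/mL in TBS. Kinase step: 30 ng/ml ALK, 15 min, 37° C. Detection and analysis: Eu-N1 PT66 antibody, with IC50 fitted as a sigmoidal variable-slope dose-response curve.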

T1 sequence (P08581 956-1390 limits assumed): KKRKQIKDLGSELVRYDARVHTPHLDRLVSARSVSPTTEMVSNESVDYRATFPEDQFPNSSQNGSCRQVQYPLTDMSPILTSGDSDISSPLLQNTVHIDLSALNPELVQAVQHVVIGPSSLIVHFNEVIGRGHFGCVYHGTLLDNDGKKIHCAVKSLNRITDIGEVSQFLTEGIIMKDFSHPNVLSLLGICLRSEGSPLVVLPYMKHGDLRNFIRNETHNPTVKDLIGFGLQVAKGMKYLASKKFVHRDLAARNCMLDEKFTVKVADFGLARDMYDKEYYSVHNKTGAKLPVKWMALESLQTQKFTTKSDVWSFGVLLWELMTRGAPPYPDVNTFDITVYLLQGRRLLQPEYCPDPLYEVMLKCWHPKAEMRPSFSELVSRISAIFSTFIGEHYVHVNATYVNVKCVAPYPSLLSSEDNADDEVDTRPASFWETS

Turning to `COc1cc2c(cc1Nc1ncc(Cl)c(N[C@H]3[C@@H](C(N)=O)[C@@H]4C=C[C@H]3C4)n1)CCN(CC(F)F)CC2` [Example 806, (1S,2S,3R,4R)-3-{5-Chloro-2-[3-(2,2-difluoro-ethyl)-8-methoxy-2,3,4,5-tetrahydro-1H-benzo[d]azepin-7-ylamino]-pyrimidin-4-ylamino}-bicyclo[2.2.1]hept-5-ene-2-carboxylic acid amide], the IC50 in experiment [1] is greater than 10 µM; in experiment [2], less than 0.1 µM.

With `COc1cc2c(cc1Nc1ncc(Cl)c(Nc3ccc(N4CCN(C)CC4)cc3OC)n1)CCN(CC(N)=O)CC2` [Example 807, 2-(7-{5-Chloro-4-[2-methoxy-4-(4-methyl-piperazin-1-yl)-phenylamino]-pyrimidin-2-ylamino}-8-methoxy-1,2,4,5-tetrahydro-benzo[d]azepin-3-yl)-acetamide], the IC50 in experiment [1] was greater than 10 µM; in experiment [2] it was less than 0.1 µM.

Turning to `COc1cc2c(cc1Nc1ncc(F)c(Nc3ccc(N4CCOCC4)cc3OC)n1)CCN(CC(=O)N(C)C)CC2` [Example 808, 2-{7-[5-Fluoro-4-(2-methoxy-4-morpholin-4-yl-phenylamino)-pyrimidin-2-ylamino]-8-methoxy-1,2,4,5-tetrahydro-benzo[d]azepin-3-yl}-N,N-dimethyl-acetamide], the IC50 is greater than 10 µM in experiment [1] and less than 0.1 µM in experiment [2].

On to `CNC(=O)CN1CCc2cc(Nc3ncc(F)c(Nc4ccc(N5CCOCC5)cc4OC)n3)c(OC)cc2CC1` [Example 809, 2-{7-[5-Fluoro-4-(2-methoxy-4-morpholin-4-yl-phenylamino)-pyrimidin-2-ylamino]-8-methoxy-1,2,4,5-tetrahydro-benzo[d]azepin-3-yl}-N-methyl-acetamide], for which the IC50 in experiment [1] was greater than 10 µM; in experiment [2], less than 0.1 µM.

Turning to `COc1cc2c(cc1Nc1ncc(F)c(Nc3ccc(N4CCOCC4)cc3OC)n1)CCN(CC(N)=O)CC2` [Example 810, 2-{7-[5-Fluoro-4-(2-methoxy-4-morpholin-4-yl-phenylamino)-pyrimidin-2-ylamino]-8-methoxy-1,2,4,5-tetrahydro-benzo[d]azepin-3-yl}-acetamide], the IC50 was greater than 10 µM in experiment [1] and less than 0.1 µM in experiment [2].

On to `COc1cc2c(cc1Nc1ncc(F)c(Nc3ccc(N4CCOCC4)cc3OC)n1)CCN(CC(=O)OC(C)C)CC2` [Example 811, {7-[5-Fluoro-4-(2-methoxy-4-morpholin-4-yl-phenylamino)-pyrimidin-2-ylamino]-8-methoxy-1,2,4,5-tetrahydro-benzo[d]azepin-3-yl}-acetic acid isopropyl ester], for which the values for the IC50 in experiment [1] and in experiment [2] were greater than 10 µM and 0.1 to 1 µM, respectively.

Take `COCC(COC)N1CCc2cc(Nc3ncc(Cl)c(Nc4ccc(N5CCOCC5)cc4OC)n3)c(OC)cc2CC1` [Example 814, 5-Chloro-N*2*-[8-methoxy-3-(2-methoxy-1-methoxymethyl-ethyl)-2,3,4,5-tetrahydro-1H-benzo[d]azepin-7-yl]-N*4*-(2-methoxy-4-morpholin-4-yl-phenyl)-pyrimidine-2,4-diamine]: the IC50 in experiment [1] is greater than 10 µM; in experiment [2], less than 0.1 µM.

As for `COCC(COC)N1CCc2cc(Nc3ncc(Cl)c(N[C@H]4[C@@H](C(N)=O)[C@@H]5C=C[C@H]4C5)n3)c(OC)cc2CC1` [Example 815, (1S,2S,3R,4R)-3-{5-Chloro-2-[8-methoxy-3-(2-methoxy-1-methoxymethyl-ethyl)-2,3,4,5-tetrahydro-1H-benzo[d]azepin-7-ylamino]-pyrimidin-4-ylamino}-bicyclo[2.2.1]hept-5-ene-2-carboxylic acid amide], the IC50 is greater than 10 µM in experiment [1] and less than 0.1 µM in experiment [2].

Regarding `COCC(COC)N1CCc2cc(Nc3ncc(Cl)c(N[C@@H]4CCCC[C@H]4NS(C)(=O)=O)n3)c(OC)cc2CC1` [Example 816, N-((1R,2R)-2-{5-Chloro-2-[8-methoxy-3-(2-methoxy-1-methoxymethyl-ethyl)-2,3,4,5-tetrahydro-1H-benzo[d]azepin-7-ylamino]-pyrimidin-4-ylamino}-cyclohexyl)-methanesulfonamide], the IC50 in experiment [1] is greater than 10 µM; in experiment [2] it was less than 0.1 µM.

For `COCC(COC)N1CCc2cc(Nc3ncc(Cl)c(Nc4ccccc4S(=O)(=O)C(C)C)n3)c(OC)cc2CC1` [Example 817, 5-Chloro-N*2*-[8-methoxy-3-(2-methoxy-1-methoxymethyl-ethyl)-2,3,4,5-tetrahydro-1H-benzo[d]azepin-7-yl]-N*4*-[2-(propane-2-sulfonyl)-phenyl]-pyrimidine-2,4-diamine], the values for the IC50 in experiment [1] and in experiment [2] were greater than 10 µM and less than 0.1 µM, respectively.

On to `COCC(COC)N1CCc2cc(Nc3ncc(Cl)c(Nc4ccccc4S(=O)(=O)N(C)C)n3)c(OC)cc2CC1` [Example 818, 2-{5-Chloro-2-[8-methoxy-3-(2-methoxy-1-methoxymethyl-ethyl)-2,3,4,5-tetrahydro-1H-benzo[d]azepin-7-ylamino]-pyrimidin-4-ylamino}-N,N-dimethyl-benzenesulfonamide], for which the IC50 was greater than 10 µM in experiment [1] and less than 0.1 µM in experiment [2].

Take `COc1cc2c(cc1Nc1ncc(Cl)c(Nc3ccc(N4CCC(N5CCN(C)CC5)CC4)cc3OC)n1)CCN(CC(=O)N(C)C)CC2` [Example 819, 2-[7-(5-Chloro-4-{2-methoxy-4-[4-(4-methyl-piperazin-1-yl)-piperidin-1-yl]-phenylamino}-pyrimidin-2-ylamino)-8-methoxy-1,2,4,5-tetrahydro-benzo[d]azepin-3-yl]-N,N-dimethyl-acetamide]: the IC50 is greater than 10 µM in experiment [1] and less than 0.1 µM in experiment [2].

`COc1ccc(Nc2nc(Nc3cc4c(cc3OC)CCN(CC(=O)N(C)C)CC4)ncc2Cl)c(S(=O)(=O)N(C)C)c1` [Example 820, 2-{7-[5-Chloro-4-(2-dimethylsulfamoyl-4-methoxy-phenylamino)-pyrimidin-2-ylamino]-8-methoxy-1,2,4,5-tetrahydro-benzo[d]azepin-3-yl}-N,N-dimethyl-acetamide]: the IC50 in experiment [1] was greater than 10 µM; in experiment [2], less than 0.1 µM.

`COc1ccc(Nc2nc(Nc3cc4c(cc3OC)CCN(CC(=O)N(C)C)CC4)ncc2Cl)c(NS(C)(=O)=O)c1` [Example 821, 2-{7-[5-Chloro-4-(2-methanesulfonylamino-4-methoxy-phenylamino)-pyrimidin-2-ylamino]-8-methoxy-1,2,4,5-tetrahydro-benzo[d]azepin-3-yl}-N,N-dimethyl-acetamide]: the results for the IC50 in experiment [1] and in experiment [2] were greater than 10 µM and less than 0.1 µM, respectively.

On to `COc1cc2c(cc1Nc1ncc(Cl)c(Nc3ccccc3S(=O)(=O)N(C)C)n1)CCN(CC(F)F)CC2` [Example 822, 2-{5-Chloro-2-[3-(2,2-difluoro-ethyl)-8-methoxy-2,3,4,5-tetrahydro-1H-benzo[d]azepin-7-ylamino]-pyrimidin-4-ylamino}-N,N-dimethyl-benzenesulfonamide], for which the IC50 was greater than 10 µM in experiment [1] and less than 0.1 µM in experiment [2].

Consider `COc1cc2c(cc1Nc1ncc(Cl)c(Nc3ccccc3-n3cccn3)n1)CCN(CC(F)F)CC2` [Example 823, 5-Chloro-N*2*-[3-(2,2-difluoro-ethyl)-8-methoxy-2,3,4,5-tetrahydro-1H-benzo[d]azepin-7-yl]-N*4*-(2-pyrazol-1-yl-phenyl)-pyrimidine-2,4-diamine], for which the IC50 in experiment [1] is greater than 10 µM; in experiment [2], less than 0.1 µM.

Consider `COc1cc2c(cc1Nc1ncc(Cl)c(Nc3ccccc3S(=O)(=O)N(C)C)n1)CCN(CC(C)(F)F)CC2` [Example 824, 2-{5-Chloro-2-[3-(2,2-difluoro-propyl)-8-methoxy-2,3,4,5-tetrahydro-1H-benzo[d]azepin-7-ylamino]-pyrimidin-4-ylamino}-N,N-dimethyl-benzenesulfonamide], for which the IC50 in experiment [1] was greater than 10 µM; in experiment [2], less than 0.1 µM.

For `COc1cc2c(cc1Nc1ncc(Cl)c(Nc3ccccc3-n3cccn3)n1)CCN(CC(C)(F)F)CC2` [Example 825, 5-Chloro-N*2*-[3-(2,2-difluoro-propyl)-8-methoxy-2,3,4,5-tetrahydro-1H-benzo[d]azepin-7-yl]-N*4*-(2-pyrazol-1-yl-phenyl)-pyrimidine-2,4-diamine], the IC50 is greater than 10 µM in experiment [1] and 0.1 to 1 µM in experiment [2].

Turning to `COc1ccc(Nc2nc(Nc3cc4c(cc3OC)CCN(CC(=O)N(C)C)CC4)ncc2Cl)c(N(C)C)c1` [Example 826, 2-{7-[5-Chloro-4-(2-dimethylamino-4-methoxy-phenylamino)-pyrimidin-2-ylamino]-8-methoxy-1,2,4,5-tetrahydro-benzo[d]azepin-3-yl}-N,N-dimethyl-acetamide], the IC50 in experiment [1] was greater than 10 µM; in experiment [2] it was less than 0.1 µM.

On to `COc1cc2c(cc1Nc1ncc(Cl)c(Nc3ccccc3S(=O)(=O)C(C)C)n1)CCN(CC(F)F)CC2` [Example 827, 5-Chloro-N*2*-[3-(2,2-difluoro-ethyl)-8-methoxy-2,3,4,5-tetrahydro-1H-benzo[d]azepin-7-yl]-N*4*-[2-(propane-2-sulfonyl)-phenyl]-pyrimidine-2,4-diamine], for which the IC50 was greater than 10 µM in experiment [1] and less than 0.1 µM in experiment [2].

In the case of `COc1cc2c(cc1Nc1ncc(Cl)c(Nc3ccccc3S(=O)(=O)C(C)C)n1)CCN(CC(C)(F)F)CC2` [Example 828, 5-Chloro-N*2*-[3-(2,2-difluoro-propyl)-8-methoxy-2,3,4,5-tetrahydro-1H-benzo[d]azepin-7-yl]-N*4*-[2-(propane-2-sulfonyl)-phenyl]-pyrimidine-2,4-diamine], the IC50 in experiment [1] is greater than 10 µM; in experiment [2], less than 0.1 µM.
